Assay results published in US12692238B2, “Substituted pyridazinone herbicides” (FMC CORPORATION, priority 2020, dated 2026).

How the values were obtained:
Format in all cases: in vivo
[1] = system: goosegrass (Eleusine indica); assay: Test A preemergence, goosegrass; conditions: 0 to 100 scale, 10 days
Description: (§1) Seeds of plant species selected from barnyardgrass (Echinochloa crus-galli), blackgrass (Alopecurus myosuroides), corn (Zea mays), foxtail, giant (giant foxtail, Setaria faberi), foxtail, green (green foxtail, Setaria viridis), goosegrass (Eleusine indica), kochia (Bassia scoparia), oat, wild (wild oat, Avena fatua), palmer amaranth (pigweed, palmer, Amaranthus palmeri), redroot pigweed (Amaranthus retroflexus), ragweed (common ragweed, Ambrosia artemisiifolia), ryegrass, Italian (Italian ryegrass, Lolium multiflorum), and soybean (Glycine max) were planted into a blend of loam soil and sand and treated preemergence with a directed soil spray using test chemicals formulated in a non-phytotoxic solvent mixture which included a surfactant.
(§2) At the same time, plants selected from these crop and weed species and also wheat (Triticum aestivum), galium (catchweed bedstraw, Galium aparine) and horseweed (Erigeron canadensis) were planted in pots containing the same blend of loam soil and sand and treated with postemergence applications of test chemicals formulated in the same manner. Plants ranged in height from 2 to 10 cm and were in the one- to two-leaf stage for the postemergence treatment. Treated plants and untreated controls were maintained in a greenhouse for 10 days, after which time all treated plants were compared to untreated controls and visually evaluated for injury. Plant response ratings, summarized in Table A, are based on a 0 to 100 scale where 0 is no effect and 100 is complete control. A dash (-) response means no test result.

[2] = system: wheat (Triticum aestivum); assay: Test A preemergence, wheat; conditions: 125 g ai/ha, 0 to 100 scale, 10 days
[3] = system: ryegrass, Italian (Italian ryegrass, Lolium multiflorum); assay: Test A postemergence, ryegrass, Italian; conditions: 10 days
In short: (§3)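 Test chemicals, formulated in a non-phytotoxic solvent mixture with surfactant, are applied either as a directed preemergence soil spray or postemergence to seedlings at the one- to two-leaf stage. Injury is scored visually after 10 days, 0 = no effect to 100 = complete control.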

[4] = system: foxtail, giant (giant foxtail, Setaria faberi); assay: Test A preemergence, foxtail, giant; conditions: 0 to 100 scale, 10 days
In short: as §3

[5] = system: soybean (Glycine max); assay: Test A preemergence, soybean; conditions: 0 to 100 scale, 10 days
Description: as §1, §2

[6] = system: oat, wild (wild oat, Avena fatua); assay: Test A preemergence, oat, wild; conditions: 0 to 100 scale, 10 days
Description: as §1, §2

[7] = system: corn (Zea mays); assay: Test A postemergence, corn; conditions: 10 days
In short: as §3

[8] = system: blackgrass (Alopecurus myosuroides); assay: Test A preemergence, blackgrass; conditions: 0 to 100 scale, 10 days
Description: as §1, §2

[9] = system: blackgrass (Alopecurus myosuroides); assay: Test A postemergence, blackgrass; conditions: 10 days
In short: as §3

[10] = system: ragweed (common ragweed, Ambrosia artemisiifolia); assay: Test A preemergence, ragweed; conditions: 0 to 100 scale, 10 days
In short: as §3

[11] = system: ragweed (common ragweed, Ambrosia artemisiifolia); assay: Test A postemergence, ragweed; conditions: 10 days
In short: as §3

[12] = system: wheat (Triticum aestivum); assay: Test A postemergence, wheat; conditions: 10 days
In short: as §3

[13] = system: goosegrass (Eleusine indica); assay: Test A postemergence, goosegrass; conditions: 10 days
Description: as §1, §2

[14] = system: ryegrass, Italian (Italian ryegrass, Lolium multiflorum); assay: Test A preemergence, ryegrass, Italian; conditions: 0 to 100 scale, 10 days
In short: as §3

[15] = system: horseweed (Erigeron canadensis); assay: Test A postemergence, horseweed; conditions: 10 days
Description: as §1, §2

[16] = system: rice (Oryza sativa); assay: Test B flooded paddy test, rice; conditions: 250 g ai/ha, Flood; visually evaluated after 10 to 14 days
In short: (§4)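 Greenhouse paddy assay in which test compounds were dosed into floodwater standing 3 cm above the soil. Plants were at the 2-leaf stage, the water level was kept constant, and effects were rated visually 10–14 days later on a 0–100 scale relative to controls.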

[17] = system: barnyardgrass (Echinochloa crus-galli); assay: Test B flooded paddy test, barnyardgrass; conditions: 250 g ai/ha, Flood; visually evaluated after 10 to 14 days
In short: as §4

[18] = system: palmer amaranth (pigweed, palmer, Amaranthus palmeri); assay: Test A preemergence, palmer amaranth; conditions: 0 to 100 scale, 10 days
Description: as §1, §2

[19] = system: soybean (Glycine max); assay: Test A postemergence, soybean; conditions: 10 days
Description: as §1, §2

[20] = system: kochia (Bassia scoparia); assay: Test A preemergence, kochia; conditions: 0 to 100 scale, 10 days
In short: as §3

[21] = system: palmer amaranth (pigweed, palmer, Amaranthus palmeri); assay: Test A postemergence, palmer amaranth; conditions: 10 days
Description: as §1, §2

[22] = system: sedge, umbrella (small-flower umbrella sedge, Cyperus difformis); assay: Test B flooded paddy test, sedge, umbrella; conditions: 250 g ai/ha, Flood; visually evaluated after 10 to 14 days
In short: as §4

[23] = system: foxtail, giant (giant foxtail, Setaria faberi); assay: Test A postemergence, foxtail, giant; conditions: 10 days
In short: as §3

[24] = system: kochia (Bassia scoparia); assay: Test A postemergence, kochia; conditions: 10 days
In short: as §3

[25] = system: ducksalad (Heteranthera limosa); assay: Test B flooded paddy test, ducksalad; conditions: 250 g ai/ha, Flood; visually evaluated after 10 to 14 days
In short: as §4

[26] = system: corn (Zea mays); assay: Test A preemergence, corn; conditions: 0 to 100 scale, 10 days
Description: as §1, §2

[27] = system: oat, wild (wild oat, Avena fatua); assay: Test A postemergence, oat, wild; conditions: 10 days
Description: as §1, §2

[28] = system: galium (catchweed bedstraw, Galium aparine); assay: Test A postemergence, galium; conditions: 10 days
In short: as §3

[29] = 31 g ai/ha, postemergence, 0 to 100 scale (0 no effect, 100 complete control)
[30] = Postemergence, 125 g ai/ha, 0 to 100 scale

Cc1ccc2cc3ccc(F)cc3c(-c3c(OCOC(=O)OC(C)C)c(C)nn(C)c3=O)c2c1 [Compound 17]
30: Plant response rating, Corn [7, 30] | Plant response rating, Goosegrass [13, 29] | Plant response rating, Ryegrass, Italian ([14]; 31 g ai/ha) | Plant response rating, Corn ([26]; 125 g ai/ha) | Plant response rating, Oat, Wild [27, 30]
10: Plant response rating, Blackgrass [9, 30] | Plant response rating, Oat, Wild [27, 29]
85: Plant response rating, Sedge, Umbrella (0 to 100 scale where 0 is no effect and 100 is complete control) [22] | Plant response rating, Ducksalad (0 to 100 scale where 0 is no effect and 100 is complete control) [25]
60: Plant response rating, Goosegrass ([1]; 125 g ai/ha) | Plant response rating, Soybean [19, 29]
70: Plant response rating, Ryegrass, Italian [3, 29] | Plant response rating, Barnyardgrass (0 to 100 scale where 0 is no effect and 100 is complete control) [17]
50: Plant response rating, Goosegrass ([1]; 31 g ai/ha) | Plant response rating, Goosegrass [13, 30]
45: Plant response rating, Rice (0 to 100 scale where 0 is no effect and 100 is complete control) [16]
0: Plant response rating, Wheat [2] | Plant response rating, Soybean ([5]; 31 g ai/ha) | Plant response rating, Soybean ([5]; 125 g ai/ha) | Plant response rating, Oat, Wild ([6]; 31 g ai/ha) | Plant response rating, Oat, Wild ([6]; 125 g ai/ha) | Plant response rating, Corn [7, 29] | Plant response rating, Blackgrass ([8]; 31 g ai/ha) | Plant response rating, Blackgrass [9, 29] | Plant response rating, Wheat [12, 29] | Plant response rating, Wheat [12, 30] | Plant response rating, Corn ([26]; 31 g ai/ha)
20: Plant response rating, Blackgrass ([8]; 125 g ai/ha)
90: Plant response rating, Kochia ([20]; 31 g ai/ha) | Plant response rating, Kochia ([20]; 125 g ai/ha) | Plant response rating, Pigweed, Palmer [21, 29]
80: Plant response rating, Ryegrass, Italian ([14]; 125 g ai/ha) | Plant response rating, Soybean [19, 30]
100: Plant response rating, Ryegrass, Italian [3, 30] | Plant response rating, Foxtail, Giant ([4]; 31 g ai/ha) | Plant response rating, Foxtail, Giant ([4]; 125 g ai/ha) | Plant response rating, Ragweed ([10]; 31 g ai/ha) | Plant response rating, Ragweed ([10]; 125 g ai/ha) | Plant response rating, Ragweed [11, 29] | Plant response rating, Ragweed [11, 30] | Plant response rating, Horseweed [15, 29] | Plant response rating, Horseweed [15, 30] | Plant response rating, Pigweed, Palmer ([18]; 31 g ai/ha) | Plant response rating, Pigweed, Palmer ([18]; 125 g ai/ha) | Plant response rating, Pigweed, Palmer [21, 30] | Plant response rating, Foxtail, Giant [23, 29] | Plant response rating, Foxtail, Giant [23, 30] | Plant response rating, Kochia [24, 29] | Plant response rating, Kochia [24, 30] | Plant response rating, Galium [28, 29] | Plant response rating, Galium [28, 30]
